Results from patent US6914045B2, “Glycopeptide antibiotics” (Wyeth Holdings Corporation, priority 2001, dated 2005).
Values after ≈ are worked out from the molar mass of the structure shown. One block for each compound: values may come before it. Numbered stars: 1 amine (or outer) side, 2 acyl side, 3 side chain; on linkers, the order of the positions; unused ones are H or OH. Square brackets hold non-standard residues; d marks the D form. Peptide text beside a SMILES is read from it. ξ: configuration not given here. X1 = N=C1NCC(C(O)C(N[*:1])C(=O)[*:2])N1C1OC(CO)C(O)C(O)C1O; ξEnduracididine(βξ-OH,4'ξ) = N=C1NCC(C(O)C(N)C(=O)O)N1; Tyr(3-NO2) = N[CH](Cc1ccc(O)c([N+](=O)[O-])c1)C(=O)O; ξPhe(βξ-Me) = CC(c1ccccc1)C(N)C(=O)O

Tests used:
Test in all cases: in vitro antibacterial evaluation, MIC by broth dilution
Format in all cases: cell-based
[1] = system: Enterococcus sp.; details: broth dilution, 18 hours at 35° C.; for MIC Enterococcus faecalis (ATCC 29212): strain ATCC 29212; for MIC Enterococcus faecalis (GC 2242): strain GC 2242; for MIC Enterococcus faecium (GC 2243): strain GC 2243; for MIC Enterococcus faecalis (GC 4552): strain GC 4552; for MIC Enterococcus faecalis (GC 4553): strain GC 4553; for MIC Enterococcus faecalis (GC 4554): strain GC 4554; for MIC Enterococcus faecium (GC 4556): strain GC 4556; for MIC Enterococcus faecium (GC 4557): strain GC 4557; for MIC Enterococcus avium (GC 4558): strain GC 4558
Method in brief: (§1)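 Broth dilution per NCCLS M7-A2 in Mueller-Hinton II medium, inoculum 5×10^5 CFU/mL, antibiotic range 64-0.06 μg/mL. MIC taken as lowest concentration inhibiting growth; Gram-positive panel includes recent clinical isolates resistant to methicillin, penicillin and/or vancomycin.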

[2] = system: Staphylococcus sp.
Method in brief: as §1

[3] = system: Streptococcus sp.; details: broth dilution, 18 hours at 35° C.; for MIC Streptococcus agalactiae (GC 4564): strain GC 4564; for MIC Streptococcus pneumoniae (GC 4565): strain GC 4565
Method in brief: as §1

[4] = system: Escherichia coli; details: broth dilution, 18 hours at 35° C.; for MIC Escherichia coli (ATCC 25922): strain ATCC 25922; for MIC Escherichia coli (GC 4559): strain GC 4559; for MIC Escherichia coli (GC 4560): strain GC 4560
Method in brief: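 Broth dilution MIC per NCCLS M7-A2 in Mueller-Hinton II medium, inoculum 5×10^5 CFU/mL, antibiotic range 64-0.06 μg/mL. MIC taken as lowest concentration inhibiting growth.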

MIC Enterococcus faecalis (ATCC 29212) [1]: 64 µg/mL (≈ 54.3 µM) | MIC Enterococcus faecalis (GC 2242) [1]: 64 µg/mL (≈ 54.3 µM) | MIC Enterococcus faecium (GC 2243) [1]: 32 µg/mL (≈ 27.2 µM) | MIC Enterococcus faecalis (GC 2691) ([1]; strain GC 2691): 64 µg/mL (≈ 54.3 µM) | MIC Enterococcus faecalis (GC 3059) ([1]; strain GC 3059): 128 µg/mL (≈ 109 µM) | MIC Enterococcus faecalis (GC 4552) [1]: 128 µg/mL (≈ 109 µM) | MIC Enterococcus faecalis (GC 4553) [1]: 16 µg/mL (≈ 13.6 µM) | MIC Enterococcus faecalis (GC 4554) [1]: 128 µg/mL (≈ 109 µM) | MIC Enterococcus faecium (GC 4556) [1]: 4 µg/mL (≈ 3.39 µM) | MIC Enterococcus faecium (GC 4557) [1]: 4 µg/mL (≈ 3.39 µM) | MIC Enterococcus avium (GC 4558) [1]: 8 µg/mL (≈ 6.79 µM) | MIC Enterococcus faecalis (GC 6189) ([1]; strain GC 6189): 64 µg/mL (≈ 54.3 µM) | MIC Staphylococcus aureus (ATCC 29213) ([2]; strain ATCC 29213; broth dilution, 18 hours at 35° C.): 16 µg/mL (≈ 13.6 µM) | MIC Staphylococcus aureus (GC 1131) ([2]; strain GC 1131; broth dilution, 18 hours at 35° C.): 16 µg/mL (≈ 13.6 µM) | MIC Staphylococcus aureus (GC 3051) ([2]; strain GC 3051; broth dilution, 18 hours at 35° C.): 16 µg/mL (≈ 13.6 µM) | MIC Staphylococcus aureus (GC 3053) ([2]; strain GC 3053; broth dilution, 18 hours at 35° C.): 16 µg/mL (≈ 13.6 µM) | MIC Staphylococcus aureus (GC 4541) ([2]; strain GC 4541; broth dilution, 18 hours at 35° C.): 16 µg/mL (≈ 13.6 µM) | MIC Staphylococcus aureus (GC 4542) ([2]; strain GC 4542; broth dilution, 18 hours at 35° C.): 8 µg/mL (≈ 6.79 µM) | MIC Staphylococcus aureus-SMITH (GC 4543) ([2]; strain GC 4543; broth dilution, 18 hours at 35° C.): 16 µg/mL (≈ 13.6 µM) | MIC Staphylococcus aureus (GC 4544) ([2]; strain GC 4544; broth dilution, 18 hours at 35° C.): 16 µg/mL (≈ 13.6 µM) | MIC Staphylococcus aureus (GC 4545) ([2]; strain GC 4545; broth dilution, 18 hours at 35° C.): 16 µg/mL (≈ 13.6 µM) | MIC Coagulase Negative Staphylococcus (GC 4547) ([2]; strain GC 4547; broth dilution, 18 hours at 35° C.): 8 µg/mL (≈ 6.79 µM) | MIC Coagulase Negative Staphylococcus (GC 4548) ([2]; strain GC 4548; broth dilution, 18 hours at 35° C.): 8 µg/mL (≈ 6.79 µM) | MIC Coagulase Negative Staphylococcus (GC 4549) ([2]; strain GC 4549; broth dilution, 18 hours at 35° C.): 16 µg/mL (≈ 13.6 µM) | MIC Coagulase Negative Staphylococcus (GC 4551) ([2]; strain GC 4551; broth dilution, 18 hours at 35° C.): 16 µg/mL (≈ 13.6 µM) | MIC Coagulase Negative Staphylococcus (GC 6257) ([2]; strain GC 6257; broth dilution, 18 hours at 35° C.): 4 µg/mL (≈ 3.39 µM) | MIC Streptococcus pneumoniae (ATCC 6301) ([3]; strain ATCC 6301): 16 µg/mL (≈ 13.6 µM) | MIC Streptococcus pneumoniae (GC 1894) ([3]; strain GC 1894): 32 µg/mL (≈ 27.2 µM) | MIC Streptococcus pyogenes (GC 4563) ([3]; strain GC 4563): 8 µg/mL (≈ 6.79 µM) | MIC Streptococcus agalactiae (GC 4564) [3]: 32 µg/mL (≈ 27.2 µM) | MIC Streptococcus pneumoniae (GC 4565) [3]: 64 µg/mL (≈ 54.3 µM) | MIC Escherichia coli (ATCC 25922) [4]: >128 µg/mL | MIC Escherichia coli (GC 4559) [4]: >128 µg/mL | MIC Escherichia coli (GC 4560) [4]: 32 µg/mL (≈ 27.2 µM)
SMILES: CC(c1ccccc1)C1NC(=O)CNC(=O)C(CO)NC(=O)C(C(O)C2CNC(=N)N2C2OC(CO)C(O)C(O)C2O)NC(=O)C(C(O)C2CNC(=N)N2)NC(=O)C(Cc2ccc3oc(-c4ccc(OCc5ccccc5)cc4)nc3c2)NC1=O (stereo not drawn) [Example 31, Cyclo[3-[2-[4-(phenylmethoxy)phenyl]-1,3-benzoxazol-5-yl]alanyl-3-(2-iminoimidazolidin-4-yl)seryl-3-(3-hexopyranosyl-2-iminoimidazolidin-4-yl)serylserylglycyl-β-methyl-phenylalanyl]]
MIC Staphylococcus haemolyticus (GC 4546) ([2]; strain GC 4546; broth dilution, 18 hours at 35° C.): 8 µg/mL (≈ 6.79 µM)

MIC Enterococcus faecalis (ATCC 29212) [1]: >128 µg/mL | MIC Enterococcus faecalis (GC 2242) [1]: >128 µg/mL | MIC Enterococcus faecium (GC 2243) [1]: >128 µg/mL | MIC Enterococcus faecalis (GC 4552) [1]: >128 µg/mL | MIC Enterococcus faecalis (GC 4553) [1]: >128 µg/mL | MIC Enterococcus faecalis (GC 4554) [1]: >128 µg/mL | MIC Enterococcus faecium (GC 4556) [1]: >128 µg/mL | MIC Enterococcus faecium (GC 4557) [1]: >128 µg/mL | MIC Enterococcus avium (GC 4558) [1]: >128 µg/mL | MIC Staphylococcus aureus (ATCC 29213) ([2]; broth dilution, 18 hours at 35° C.; strain ATCC 29213): >128 µg/mL | MIC Staphylococcus aureus (GC 1131) ([2]; broth dilution, 18 hours at 35° C.; strain GC 1131): >128 µg/mL | MIC Staphylococcus aureus (GC 4541) ([2]; broth dilution, 18 hours at 35° C.; strain GC 4541): >128 µg/mL | MIC Staphylococcus aureus (GC 4542) ([2]; broth dilution, 18 hours at 35° C.; strain GC 4542): >128 µg/mL | MIC Staphylococcus aureus-SMITH (GC 4543) ([2]; broth dilution, 18 hours at 35° C.; strain GC 4543): >128 µg/mL | MIC Staphylococcus aureus (GC 4544) ([2]; broth dilution, 18 hours at 35° C.; strain GC 4544): >128 µg/mL | MIC Staphylococcus aureus (GC 4545) ([2]; broth dilution, 18 hours at 35° C.; strain GC 4545): >128 µg/mL | MIC Coagulase Negative Staphylococcus (GC 4547) ([2]; broth dilution, 18 hours at 35° C.; strain GC 4547): >128 µg/mL | MIC Coagulase Negative Staphylococcus (GC 4548) ([2]; broth dilution, 18 hours at 35° C.; strain GC 4548): >128 µg/mL | MIC Coagulase Negative Staphylococcus (GC 4549) ([2]; broth dilution, 18 hours at 35° C.; strain GC 4549): >128 µg/mL | MIC Coagulase Negative Staphylococcus (GC 4551) ([2]; broth dilution, 18 hours at 35° C.; strain GC 4551): >128 µg/mL | MIC Coagulase Negative Staphylococcus (ID-3941) ([2]; broth dilution, 18 hours at 35° C.; strain ID-3941): >128 µg/mL | MIC Streptococcus agalactiae (GC 4564) [3]: >128 µg/mL | MIC Streptococcus pneumoniae (GC 4565) [3]: >128 µg/mL | MIC Streptococcus pyogenes (ID-3187) ([3]; strain ID-3187): >128 µg/mL | MIC Escherichia coli (ATCC 25922) [4]: >128 µg/mL | MIC Escherichia coli (GC 4559) [4]: >128 µg/mL | MIC Escherichia coli (GC 4560) [4]: >128 µg/mL
SMILES: CC(c1ccccc1)C1NC(=O)CNC(=O)C(CO)NC(=O)C(C(O)C2CNC(=N)N2C2OC(CO)C(O)C(O)C2O)NC(=O)C(C(O)C2CNC(=N)N2)NC(=O)C(Cc2ccc(O)c([N+](=O)[O-])c2)NC1=O (stereo not drawn) [Example 8, Cyclo[glycyl-β-methylphenylalanyl-3-nitrotyrosyl-3-(2-iminoimidazolidin-4-yl)seryl-3-(3-hexopyranosyl-2-iminoimidazolidin-4-yl)serylseryl]] (cyclo(G[ξPhe(βξ-Me)][Tyr(3-NO2)][ξEnduracididine(βξ-OH,4'ξ)][X1]S); configuration not given here)
MIC Staphylococcus haemolyticus (GC 4546) ([2]; broth dilution, 18 hours at 35° C.; strain GC 4546): >128 µg/mL
